Where two headings read alike, the source gives them in different places.
Key:
[1] = target: recombinant HPK1 protein (Homo sapiens (Human), UniProt Q92918); experiment: Primary HPK1 enzymatic inhibition (ADP-Glo luminescence); format: biochemical; conditions: recombinant HPK1, MBP substrate, 1 hour at room temperature
Description: Example A. Primary Assay used to determine potency of HPK1 enzymatic activity inhibition. Compound activity was determined using recombinant HPK1 protein and MBP Substrate (both Promega, Cat #V6398) in an in vitro enzymatic reaction. The enzymatic assay used to determine activity was a Luminescence assay using a Microplate Reader ClarioStar Plus. The enzymatic reaction was carried out in assay buffer (40 mM TRIS-HCl pH 7.4-7.6, 20 mM MgCl2, 0.05 mM DTT, 0.1 mg/ml BSA). The compounds were dispensed on a 384 well Diamond Well Plate (Axigen, Cat #P-384-120SQ-C—S) using the Biomek FX liquid handling system at 100× solutions of compounds in DMSO. 2×HPK1-MBP mix (final concentration 0.64 ng/μl of HPK1 and 45 ng/μl of MBP) was prepared in 1× Assay buffer and 5.5 μl of mixture per well was added into 384 w white Reaction plate with NBS (Corning, Cat #4513). 5.5 μl of MBP substrate w/o HPK1 in 1× buffer was used for negative control. Plates were centrifuged for 1 min at 100 g. Next step the Compounds were added to Reaction plate using Biomek station via following steps: 1l of 100× compounds (in DMSO) were mixed thoroughly with 49 ul of 2×10 uM ATP in Assay Buffer, then 5.5 μl of this mixture was added to Reaction plate with 5.5 μl of HPK1-MBP mix. Plates were centrifuged for 1 min at 100 g and incubated for 1 hour at room temperature. Next 3 μL of ADP-Glo reagent (Promega, ADP-Glo™ Kinase Assay, Cat #V9102) per well was added. Plates were incubated for 30 minutes at room temperature. Then 6 μL of Kinase detection reagent (Promega, ADP-Glo™ Kinase Assay, Cat #V9102) per well was added and the Luminescence was measured using Microplate Reader. The % inhibition was then used to calculate the IC50 values.

[2] = system: MOLM-13; experiment: MOLM-13 Cytotoxicity Assay; format: cell-based; conditions: Homo sapiens
Description: Example C. MOLM-13 Cytotoxicity Assay. Assay was performed according the procedure described in O. A. Elgamal et al. J. Hematol. Oncol. 2020, 13, 8 (https://doi.org/10.1186/s13045-019-0821-7).

[3] = system: MV4-11 cell lines; experiment: MV4-11 Cytotoxicity Assay (CellTiter-Glo); format: cell-based; conditions: Homo sapiens, read-out: MV4-11, CC50
Description: Example B. MV4-11 Cytotoxicity Assay. CC50 was determined using MV4-11 cell lines in RPMI-1640 culture medium (PanEco cat #C363). Compounds were prepared as 200× stocks with serial dilution in 100% DMSO with a final concentration of 1×. Dispersed 40 μL in 384-well plates at a concentration of 4000 cells per well using a robotic station Biomek (Beckman). Before adding compounds, the cells were incubated at 37° C. A dilution plate was prepared by pouring 78 μl of the appropriate culture medium using a robotic station Biomek (Beckman). Sequentially, using a robotic station, 2 μl of substances were taken and added to 78 μl of culture medium (dilution of compounds 40×). Took from there 10 μl and added to the plates to the cells (dilution of compounds 5×). The plates were incubated for 3 days at a temperature 37° C. After 3 days, 10 μl of CellTiter-Glo (Promega) was added to the cells and the luminescence was measured.

[4] = target: FLT3 (ITD) (Homo sapiens, UniProt P36888, ITD); experiment: FLT3 kinase radiometric HotSpot assay, FLT3 (ITD); format: biochemical
[5] = HEK293 cytotoxicity; format: cell-based; conditions: human, HEK293 cells
Description: (§1) Example D. FLT3 inhibitory activity and cytotoxicity. This assay was used to determine potency of FLT3 enzymatic activity inhibition. Corresponding biochemical inhibition of enzymatic activities of FLT3 (wt), FLT3 (D835Y), and FLT3 (ITD) were measured using recombinant protein constructs of kinase domains via activity based FLT3 kinase assay for compound screening and profiling via radiometric HotSpot™ kinase assay (Reaction Biology). Peptide substrate [[…]]. Compounds were dissolved to 10 mM in DMSO. Compounds were tested in 10-dose IC50 mode with a 3-fold serial dilution starting at 0.3 μM. […] Reactions were carried out at 1 μM ATP. The estimated Ki values were calculated by using the formula presented below, which is applicable for ATP competitive inhibitors: Ki=IC50/(1+[S]/Km). […] In Table E shown HEK293 cytotoxicity.

[6] = target: FLT3 (D835Y) (Homo sapiens (Human), UniProt P36888, D835Y); experiment: FLT3 kinase radiometric HotSpot assay, FLT3 (D835Y); format: biochemical
Description: as §1

[7] = target: FLT3 (wt) (Homo sapiens (Human), UniProt P36888); experiment: FLT3 kinase radiometric HotSpot assay, FLT3 (wt); format: biochemical
Description: as §1

[8] = MOLM-13 cells, read-out: MOLM-13, CC50
[9] = 72 h, MV4-11 cells, 3 days, CellTiter-Glo

Chain of recombinant HPK1 protein (Q92918 whole entry): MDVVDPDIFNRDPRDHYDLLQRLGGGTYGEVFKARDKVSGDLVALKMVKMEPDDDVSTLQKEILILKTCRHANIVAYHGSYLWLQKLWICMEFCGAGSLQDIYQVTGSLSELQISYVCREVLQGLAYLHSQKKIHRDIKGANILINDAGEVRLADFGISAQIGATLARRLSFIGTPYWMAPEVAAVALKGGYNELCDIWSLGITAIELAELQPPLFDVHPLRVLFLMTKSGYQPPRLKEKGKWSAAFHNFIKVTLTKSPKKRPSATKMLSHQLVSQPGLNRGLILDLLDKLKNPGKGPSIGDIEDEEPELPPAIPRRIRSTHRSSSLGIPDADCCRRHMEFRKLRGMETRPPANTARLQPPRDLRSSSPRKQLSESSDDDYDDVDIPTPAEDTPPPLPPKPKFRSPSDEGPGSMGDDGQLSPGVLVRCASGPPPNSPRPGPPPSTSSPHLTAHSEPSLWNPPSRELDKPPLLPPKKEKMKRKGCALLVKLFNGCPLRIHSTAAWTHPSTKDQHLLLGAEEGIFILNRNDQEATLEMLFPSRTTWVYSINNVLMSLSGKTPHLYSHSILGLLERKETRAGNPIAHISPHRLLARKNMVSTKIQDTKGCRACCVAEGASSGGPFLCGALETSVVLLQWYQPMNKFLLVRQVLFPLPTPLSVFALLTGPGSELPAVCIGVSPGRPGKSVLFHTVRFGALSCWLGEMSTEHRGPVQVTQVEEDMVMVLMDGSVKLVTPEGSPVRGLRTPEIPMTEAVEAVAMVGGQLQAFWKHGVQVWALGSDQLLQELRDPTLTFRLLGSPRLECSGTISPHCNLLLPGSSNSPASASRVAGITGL

| Structure (SMILES) | Ki [1] | CC50 [2, 8] | CC50 [3, 9] | Ki [6] | Ki [7] | other results |
| --- | --- | --- | --- | --- | --- | --- |
| COc1ccc2ncc3c(-c4cccc(N5CCC(N(C)C)CC5)c4)nn(-c4ccc(C)c(C)c4)c3c2c1 [Compound 1.1, 1-{3-[1-(3,4-dimethylphenyl)-8-methoxy-1H-pyrazolo[4,3-c]quinolin-3-yl]phenyl}-N,N-dimethylpiperidin-4-amine] | 10 to 20 nM | 1000 to 5000 nM | > 500 nM | – | – | – |
| COc1ccc2ncc3c(-c4cccc(N5CCN(C)CC5)c4)nn(-c4ccc(C)c(C)c4)c3c2c1 [Compound 1.3, 1-{3-[1-(3,4-dimethylphenyl)-8-methoxy-1H-pyrazolo[4,3-c]quinolin-3-yl]phenyl}-4-methylpiperazine] | 10 to 20 nM | > 5000 nM | 100 to 500 nM | – | – | – |
| COc1ccc2ncc3c(-c4cccc(N5CCC(N(C)C)CC5)c4)nn(-c4cccc(C)c4C)c3c2c1 [Compound 1.14, 1-{3-[1-(2,3-dimethylphenyl)-8-methoxy-1H-pyrazolo[4,3-c]quinolin-3-yl]phenyl}-N,N-dimethylpiperidin-4-amine] | < 10 nM | – | > 500 nM | – | – | – |
| COc1ccc2ncc3c(-c4ccc(N5CCN(C)CC5)cc4)nn(-c4ccc(C)c(C)c4)c3c2c1 [Compound 1.16, 1-{4-[1-(3,4-dimethylphenyl)-8-methoxy-1H-pyrazolo[4,3-c]quinolin-3-yl]phenyl}-4-methylpiperazine] | 10 to 20 nM | < 500 nM | 50 to 100 nM | – | – | – |
| COc1ccc2ncc3c(-c4ccc(N5CCC(N(C)C)CC5)cc4)nn(-c4ccc(C)c(C)c4)c3c2c1 [Compound 1.17, 1-{4-[1-(3,4-dimethylphenyl)-8-methoxy-1H-pyrazolo[4,3-c]quinolin-3-yl]phenyl}-N,N-dimethylpiperidin-4-amine] | 10 to 20 nM | – | 50 to 100 nM | – | – | – |
| COc1ccc2ncc3c(-c4ccc(N(C)CCCN(C)C)cc4)nn(-c4ccc(C)c(C)c4)c3c2c1 [Compound 1.18, N-[3-(dimethylamino)propyl]-4-[1-(3,4-dimethylphenyl)-8-methoxy-1H-pyrazolo[4,3-c]quinolin-3-yl]-N-methylaniline] | 20 to 50 nM | > 5000 nM | 100 to 500 nM | – | – | – |
| Cc1ccc(-n2nc(-c3ccc(N4CCN(C)CC4)cc3)c3cnc4ccccc4c32)cc1C [Compound 1.21, 1-{4-[1-(3,4-dimethylphenyl)-1H-pyrazolo[4,3-c]quinolin-3-yl]phenyl}-4-methylpiperazine] | ≥ 50 nM | 1000 to 5000 nM | 100 to 500 nM | – | – | – |
| Cc1ccc(-n2nc(-c3ccc(N4CCNCC4)cc3)c3cnc4ccccc4c32)cc1C [Compound 1.22, 1-{4-[1-(3,4-dimethylphenyl)-1H-pyrazolo[4,3-c]quinolin-3-yl]phenyl}piperazine] | ≥ 50 nM | 1000 to 5000 nM | 100 to 500 nM | – | – | – |
| COc1ccc2ncc3c(-c4ccc(OCCN(C)C)c(OC)c4)nn(-c4ccc(C)c(C)c4)c3c2c1 [Compound 1.24, (2-{4-[1-(3,4-dimethylphenyl)-8-methoxy-1H-pyrazolo[4,3-c]quinolin-3-yl]-2-methoxyphenoxy}ethyl)dimethylamine] | 10 to 20 nM | – | – | – | – | CC50 ([2]; MOLM-13, read-out: MOLM-13, CC50): < 500 nM; CC50 ([3]; MV4-11, 72 h): < 50 nM |
| COc1ccc2ncc3c(-c4ccc(OCCN5CCOCC5)c(OC)c4)nn(-c4ccc(C)c(C)c4)c3c2c1 [Compound 1.25, 4-(2-{4-[1-(3,4-dimethylphenyl)-8-methoxy-1H-pyrazolo[4,3-c]quinolin-3-yl]-2-methoxyphenoxy}ethyl)morpholine] | 20 to 50 nM | 1000 to 5000 nM | 100 to 500 nM | – | – | – |
| COc1ccc2ncc3c(-c4ccc(OCCCN5CCOCC5)c(OC)c4)nn(-c4ccc(C)c(C)c4)c3c2c1 [Compound 1.26, 4-(3-{4-[1-(3,4-dimethylphenyl)-8-methoxy-1H-pyrazolo[4,3-c]quinolin-3-yl]-2-methoxyphenoxy}propyl)morpholine] | 20 to 50 nM | 500 to 1000 nM | 50 to 100 nM | – | – | – |
| COc1ccc(-c2nn(-c3ccc4c(c3)CNCC4)c3c2cnc2ccccc23)cc1OC [Compound 1.31, 7-[3-(3,4-dimethoxyphenyl)-1H-pyrazolo[4,3-c]quinolin-1-yl]-1,2,3,4-tetrahydroisoquinoline] | – | – | – | < 0.5 nM | < 0.5 nM | Ki [4]: 0.5 to 2 nM; CC50 [5]: < 10000 nM |
| COc1ccc(-c2nn(-c3ccc4c(c3)CCNC4)c3c2cnc2ccccc23)cc1OC [Compound 1.32, 6-[3-(3,4-dimethoxyphenyl)-1H-pyrazolo[4,3-c]quinolin-1-yl]-1,2,3,4-tetrahydroisoquinoline] | – | – | – | 0.5 to 2 nM | 0.5 to 2 nM | Ki [4]: > 5 nM; CC50 [5]: 10000 to 50000 nM |
| COc1ccc(-c2nn(-c3ccc4c(c3)CNC4)c3c2cnc2ccccc23)cc1OC [Compound 1.33, 5-[3-(3,4-dimethoxyphenyl)-1H-pyrazolo[4,3-c]quinolin-1-yl]-2,3-dihydro-1H-isoindole] | – | – | – | < 0.5 nM | 0.5 to 2 nM | Ki [4]: 2 to 5 nM; CC50 [5]: ≥ 50000 nM |
| COc1ccc2ncc3c(-c4ccc(OC)c(OC)c4)nn(-c4ccc5c(c4)CNCC5)c3c2c1 [Compound 1.34, 7-[3-(3,4-dimethoxyphenyl)-8-methoxy-1H-pyrazolo[4,3-c]quinolin-1-yl]-1,2,3,4-tetrahydroisoquinoline] | – | – | – | < 0.5 nM | < 0.5 nM | Ki ([4]; read-out: Ki, nM FLT3 (ITD)): < 0.5 nM |
| COc1ccc2ncc3c(-c4ccc(OC)c(OC)c4)nn(-c4ccc5c(c4)CCNC5)c3c2c1 [Compound 1.35, 6-[3-(3,4-dimethoxyphenyl)-8-methoxy-1H-pyrazolo[4,3-c]quinolin-1-yl]-1,2,3,4-tetrahydroisoquinoline] | < 10 nM | – | – | < 0.5 nM | < 0.5 nM | Ki ([4]; read-out: Ki, nM FLT3 (ITD)): 0.5 to 2 nM; CC50 [5]: < 10000 nM |
| COc1ccc2ncc3c(-c4ccc(OC)c(OC)c4)nn(-c4ccc5c(c4)CNC5)c3c2c1 [Compound 1.36, 5-[3-(3,4-dimethoxyphenyl)-8-methoxy-1H-pyrazolo[4,3-c]quinolin-1-yl]-2,3-dihydro-1H-isoindole] | < 10 nM | – | – | < 0.5 nM | < 0.5 nM | Ki ([4]; read-out: Ki, nM FLT3 (ITD)): 0.5 to 2 nM; CC50 [5]: < 10000 nM |
